≈ marks a conversion by molar mass, not a printed value. Read-outs that look alike come from different tables or passages of the source. One block for each molecule: values may come before it.
Assays:
Format in all cases: physicochemical
[1] = solubilization of Forms A and B in 1% creams; examination for crystals after manufacturing and storage; conditions: room temperature; estimated
Protocol: a) The solubility of Form A in a cream formulation is estimated to be about 1% at room temperature. In the manufacturing of cream, the drug substance is completely dissolved in the oily phase at 60-75°. To assess whether and after which storage time part of the drug substance dissolved will crystallize from the 1% cream, a series of batches is examined for crystals.
The drug substance used in the batches and preformulations mentioned above contained 100% Form A.
b) To assess whether drug substance containing Form B can be completely dissolved in the manufacturing of cream and to evaluate the long-term crystallization behaviour, several preformulations (cream, 1%) containing 0%, 1%, 5% and 10% Form B relative to the total content of compound of formula I are manufactured and put on stability testing at different temperatures.
(§1) During the preparation of these preformulations, it is observed that the solving speed of crystal Form B in the oily phase of the cream is much slower than that of crystal Form A. Immediately after manufacturing, the forms are investigated and no remaining crystals are observed.
To get information about the long-term crystallization behaviour of these forms, the stability samples are further investigated after 6 weeks, 3, 6 and 9 months storage.

[2] = solubility in the oil phase of cream (oleyl alcohol/miglyol 812 4:6)
[3] = solubility of the crystal forms in water and organic solvents
[4] = hygroscopicity (uptake determined by thermogravimetry)
Protocol: hygroscopicity (uptake determined by thermogravimetry): 1.49% (1 day, 92% r.h.); 1.78% (1 week, 25° C., 75% r.h.); hygroscopicity(uptake determined by thermogravimetry): 1 day, 92% r.h. and 1 week, 25° C., 75% r.h.: none;

[5] = dissolution in the oil phase in the preparation of a cream; conditions: for time to dissolve in the oil phase: preparation of a cream
Excerpt: The availability of well-defined crystalline forms of the compound of formula I is therefore particularly indicated for use in the preparation of galenical forms of the compound where it is indicated to overcome the above disadvantages, such as in the preparation of topical forms, e.g. creams, emulsions and ointments where it is desired to include the compound normally in dissolved state but under carefully controlled conditions. Thus in the preparation of a cream, it has been observed that Form A dissolves in the oil phase in about 10 minutes, whereas for Form B it takes about 6 hours.
as §1

[6] = thermodynamic stability of the crystal forms; conditions: compared with Form A

solubility in a cream formulation [1]: about 1%
solubility in the oil phase of cream [2]: 2.49%
solubility ([3]; acetone, 25 °C, organic solvent or mixture, at 25° C., read-out: solubility in acetone): > 50 mg/mL
solubility ([3]; acetonitrile, 25 °C, organic solvent or mixture, at 25° C., read-out: solubility in acetonitrile): > 50 mg/mL
solubility in diethylether ([3]; at 5° C.): > 100 mg/mL
solubility in diisopropyl ether ([3]; at 5° C.): > 100 mg/mL
solubility in ethanol ([3]; at 5° C.): > 100 mg/mL
solubility in hexane ([3]; at 5° C.): < 10 mg/mL
solubility in methanol ([3]; at 5° C.): > 100 mg/mL
solubility in water ([3]; at 5° C., result in words): insoluble
solubility in water ([3]; at 25° C.): < 1 mg/mL
solubility ([3]; ethanol, 25 °C, organic solvent or mixture, at 25° C., read-out: solubility in ethanol): > 50 mg/mL
solubility ([3]; ethyl acetate, 5 °C, organic solvent or mixture, at 5° C., read-out: solubility in ethyl acetate): > 100 mg/mL
solubility ([3]; ethyl acetate, 25 °C, organic solvent or mixture, at 25° C., read-out: solubility in ethyl acetate): > 50 mg/mL
solubility ([3]; isopropanol, 25 °C, organic solvent or mixture, at 25° C., read-out: solubility in isopropanol): > 50 mg/mL
solubility ([3]; methanol, 25 °C, organic solvent or mixture, at 25° C., read-out: solubility in methanol): > 50 mg/mL
hygroscopicity (uptake determined by thermogravimetry) ([4]; 1 week, 25° C., 75% r.h.): 1.78%
hygroscopicity (uptake determined by thermogravimetry) ([4]; 1 day, 92% r.h.): 1.49%
time to dissolve in the oil phase [5]: about 10 minutes
Compound: CC[C@@H]1/C=C(\C)C[C@H](C)C[C@H](OC)[C@H]2O[C@@](O)(C(=O)C(=O)N3CCCC[C@H]3C(=O)O[C@H](/C(C)=C/[C@@H]3CC[C@H](Cl)[C@H](OC)C3)[C@H](C)[C@@H](O)CC1=O)[C@H](C)C[C@@H]2OC [Form A, 33-epichloro-33-desoxyascomycin]

solubility in the oil phase of cream [2]: 0.37%
solubility in diethylether ([3]; at 5° C.): 9.3 mg/mL (≈ 11.5 mM)
solubility in diisopropyl ether ([3]; at 5° C.): 1.9 mg/mL (≈ 2.34 mM)
solubility in ethanol ([3]; at 5° C.): 18.1 mg/mL (≈ 22.3 mM)
solubility in ethyl acetate ([3]; at 5° C.): > 50 mg/mL
solubility in hexane ([3]; at 5° C.): 0.8 mg/mL (≈ 0.987 mM)
solubility in methanol ([3]; at 5° C.): 46.3 mg/mL (≈ 57.1 mM)
solubility in ethanol ([3]; at 25° C.): 34.4 mg/mL (≈ 42.4 mM)
solubility in ethyl acetate ([3]; at 25° C.): > 50 mg/mL
solubility in methanol ([3]; at 25° C.): > 50 mg/mL
solubility in water ([3]; at 25° C.): 0.4 mg/mL (≈ 0.494 mM)
solubility ([3]; diethyl ether, 25 °C, organic solvent or mixture, at 25° C., read-out: solubility in diethyl ether): 16.3 mg/mL (≈ 20.1 mM)
solubility ([3]; diisopropyl ether, 25 °C, organic solvent or mixture, at 25° C., read-out: solubility in diisopropyl ether): 3.1 mg/mL (≈ 3.82 mM)
solubility ([3]; hexane, 25 °C, organic solvent or mixture, at 25° C., read-out: solubility in hexane): 1.5 mg/mL (≈ 1.85 mM)
solubility ([3]; water, 5 °C, water, at 5° C., read-out: solubility in water): 0.3 mg/mL (≈ 0.37 mM)
hygroscopicity (uptake determined by thermogravimetry) ([4]; 1 week, 25° C., 75% r.h., result in words): none
hygroscopicity (uptake determined by thermogravimetry) ([4]; 1 day, 92% r.h., result in words): none
solving speed in the oily phase of the cream ([5]; preparation of 1% cream preformulations, compared with Form A): much slower
time to dissolve in the oil phase [5]: about 6 hours
Compound: CC[C@@H]1/C=C(\C)C[C@H](C)C[C@H](OC)[C@H]2O[C@@](O)(C(=O)C(=O)N3CCCC[C@H]3C(=O)O[C@H](/C(C)=C/[C@@H]3CC[C@H](Cl)[C@H](OC)C3)[C@H](C)[C@@H](O)CC1=O)[C@H](C)C[C@@H]2OC [Form B, 33-epichloro-33-desoxyascomycin]
thermodynamic stability [6]: thermodynamically a more stable form than Form A
